Experimental data from patent US20070185161A1, “Bicyclic substituted indole-derivative steroid hormone nuclear receptor modulators” (priority 2004, published 2007).

What follows are molecules tested against T1, human MR (Homo sapiens, UniProt P08235) (assay: Mineralocorticoid Receptor Binding Assay (Method 1)). Conditions: [3H]-aldosterone, racemic mixture unless otherwise indicated.
T1 construct: The full length human MR gene is cloned from a human kidney or human brain cDNA library; made in house; host or cells: SF9 insect cells (baculovirus)
T1 sequence (P08235 1-984): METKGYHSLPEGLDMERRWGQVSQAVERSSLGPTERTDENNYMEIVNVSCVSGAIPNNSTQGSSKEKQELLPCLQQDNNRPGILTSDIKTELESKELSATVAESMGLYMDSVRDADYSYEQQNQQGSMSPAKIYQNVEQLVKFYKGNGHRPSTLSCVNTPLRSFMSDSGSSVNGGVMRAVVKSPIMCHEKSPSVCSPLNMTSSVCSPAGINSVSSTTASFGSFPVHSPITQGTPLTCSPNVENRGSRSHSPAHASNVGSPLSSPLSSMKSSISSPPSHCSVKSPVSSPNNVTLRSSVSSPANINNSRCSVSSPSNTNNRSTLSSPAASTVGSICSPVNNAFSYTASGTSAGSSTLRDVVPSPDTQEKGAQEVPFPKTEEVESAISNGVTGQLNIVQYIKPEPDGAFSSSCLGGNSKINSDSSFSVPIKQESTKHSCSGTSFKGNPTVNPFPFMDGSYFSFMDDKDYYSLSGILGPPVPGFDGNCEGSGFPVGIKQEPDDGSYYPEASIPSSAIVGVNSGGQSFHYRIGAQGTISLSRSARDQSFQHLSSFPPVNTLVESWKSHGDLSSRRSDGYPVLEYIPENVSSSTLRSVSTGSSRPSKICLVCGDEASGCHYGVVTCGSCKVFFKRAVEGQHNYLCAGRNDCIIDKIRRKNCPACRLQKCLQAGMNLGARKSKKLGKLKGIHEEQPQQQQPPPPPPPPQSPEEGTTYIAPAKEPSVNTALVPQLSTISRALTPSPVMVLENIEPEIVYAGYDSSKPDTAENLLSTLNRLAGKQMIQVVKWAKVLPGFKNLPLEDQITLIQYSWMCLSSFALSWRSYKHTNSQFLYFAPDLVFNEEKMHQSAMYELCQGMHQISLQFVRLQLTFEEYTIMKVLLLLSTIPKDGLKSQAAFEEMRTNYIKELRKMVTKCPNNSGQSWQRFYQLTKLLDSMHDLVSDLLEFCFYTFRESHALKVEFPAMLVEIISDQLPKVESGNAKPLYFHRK
Outline: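 Lysate of Sf9 cells expressing baculovirus full-length human MR (20-25 μg protein) incubated with 0.5 nM [3H]-aldosterone and test compound, pH 7.5 molybdate buffer, 16 h at 4 °C. Bound ligand collected by filtration and counted by scintillation. IC50 for displacement; Ki by Cheng-Prusoff.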

Ki, ≤ 500 nM:
CC1(c2c[nH]c3c(NS(C)(=O)=O)cccc23)CCSc2ccccc21 (centres unmarked) [Example 37, N-[3-(4-Methyl-thiochroman-4-yl)-1-indol-7-yl]-methanesulfonamide]
CC1(c2c[nH]c3c(NS(C)(=O)=O)cccc23)CCCCc2ccccc21 (centres unmarked) [Example 38, N-[3-(5-Methyl-6,7,8,9-tetrahydro-5H-benzocyclohepten-5-yl)-1H-indol-7-yl]-methanesulfonamide]
CS(=O)(=O)Nc1cccc2c(C3(CCCI)CCc4cc(F)ccc43)c[nH]c12 (centres unmarked) [Example 41, N-{3-[5-Fluoro-1-(3-iodo-propyl)-indan-1-yl]-1H-indol-7-yl}-methanesulfonamide]
CNCCCC1(c2c[nH]c3c(NS(C)(=O)=O)cccc23)CCc2cc(F)ccc21 (centres unmarked) [Example 42, N-{3-[5-Fluoro-1-(3-methylamino-propyl)-indan-1-yl]-1H-indol-7-yl}-methanesulfonamide]
CS(=O)(=O)Nc1cccc2c(C3(CCCN4CCOCC4)CCc4cc(F)ccc43)c[nH]c12 (centres unmarked) [Example 44, N-{3-[5-Fluoro-1-(3-morpholin-4-yl-propyl)-indan-1-yl]-1H-indol-7-yl}-methanesulfonamide]
